{"source": "patent US6395748B2", "about": "“Tropane-derivatives, their preparation and use” (NeuroSearch A/S, priority 1996, dated 2002)", "key": {"dopamine transporter": {"target": "T1, dopamine transporter (Rattus norvegicus, UniProt P23977)", "T1 construct": "Corpi striati from male Wistar rats (150-200 g) are homogenized; from tissue; host or cells: rat striatal synaptosomes (P2 pellet)", "T1 sequence (P23977 whole entry)": "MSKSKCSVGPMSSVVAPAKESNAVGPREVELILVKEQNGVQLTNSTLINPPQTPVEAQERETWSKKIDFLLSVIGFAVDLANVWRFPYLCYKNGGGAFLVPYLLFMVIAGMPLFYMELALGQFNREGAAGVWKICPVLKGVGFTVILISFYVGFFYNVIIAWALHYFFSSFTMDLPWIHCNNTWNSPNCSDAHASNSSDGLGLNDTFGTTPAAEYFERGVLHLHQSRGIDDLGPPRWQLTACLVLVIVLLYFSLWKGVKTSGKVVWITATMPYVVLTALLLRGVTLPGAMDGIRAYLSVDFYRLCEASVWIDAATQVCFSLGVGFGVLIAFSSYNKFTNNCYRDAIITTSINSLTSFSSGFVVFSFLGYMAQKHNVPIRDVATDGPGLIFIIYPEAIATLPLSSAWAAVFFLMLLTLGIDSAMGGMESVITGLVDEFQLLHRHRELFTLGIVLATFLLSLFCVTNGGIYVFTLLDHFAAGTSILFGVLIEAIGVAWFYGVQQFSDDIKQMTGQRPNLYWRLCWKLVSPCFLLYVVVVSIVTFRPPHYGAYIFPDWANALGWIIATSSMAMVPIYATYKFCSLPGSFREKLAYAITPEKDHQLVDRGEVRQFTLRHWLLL", "experiment": "In vitro inhibition of 3H-dopamine (3H-DA) uptake in striatal synaptosomes", "assay_type": "biochemical", "method": "Monoamine oxidase activity will be inhibited in the presence of pargyline. The homogenate is centrifuged at 1000×g for 10 min. The resulting supernatant is then centrifuged at 27,000×g for 50 min and the supernatant is discarded.\n(§1) After incubation the samples are poured directly onto Whatman GF/C glass fibre filters under suction. The filters are then washed three times with 5 ml of ice-cold 0.9% (w/v) NaCl solution. The amount of radioactivity on the filters is determined by conventional liquid scintillation counting. Specific uptake is calculated as the difference between total uptake and non-specific uptake."}, "serotonin transporter": {"target": "T2, serotonin transporter (Rattus norvegicus, UniProt P31652)", "T2 construct": "Cerebral cortices from male Wistar rats (150-200 g) are homogenized; from tissue; host or cells: rat cerebral cortex synaptosomes (P2 pellet)", "T2 sequence (P31652 whole entry)": "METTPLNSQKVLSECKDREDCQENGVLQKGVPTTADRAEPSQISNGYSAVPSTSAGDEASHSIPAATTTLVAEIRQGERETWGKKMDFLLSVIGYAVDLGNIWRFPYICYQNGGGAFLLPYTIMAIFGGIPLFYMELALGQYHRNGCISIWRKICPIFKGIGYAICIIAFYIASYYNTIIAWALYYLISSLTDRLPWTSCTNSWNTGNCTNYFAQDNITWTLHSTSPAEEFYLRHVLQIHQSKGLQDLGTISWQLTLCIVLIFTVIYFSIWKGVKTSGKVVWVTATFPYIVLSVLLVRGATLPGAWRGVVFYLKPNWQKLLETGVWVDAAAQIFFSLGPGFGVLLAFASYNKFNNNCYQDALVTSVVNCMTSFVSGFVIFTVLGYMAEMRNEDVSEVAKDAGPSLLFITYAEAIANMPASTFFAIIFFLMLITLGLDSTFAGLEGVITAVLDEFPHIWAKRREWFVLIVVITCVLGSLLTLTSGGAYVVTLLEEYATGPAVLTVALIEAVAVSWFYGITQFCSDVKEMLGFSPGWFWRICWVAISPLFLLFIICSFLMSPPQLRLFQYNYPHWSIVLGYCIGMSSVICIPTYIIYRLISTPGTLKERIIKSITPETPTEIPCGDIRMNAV", "experiment": "In vitro inhibition of 3H-5-hydroxytryptamine (3H-5-HT, serotonin) uptake in cortical synaptosomes", "assay_type": "biochemical", "method": "Tissue preparation: Preparations are performed at 0-4° C. unless otherwise indicated. […] Monoamine oxidase activity will be inhibited in the presence of pargyline. The homogenate is centrifuged at 1000×g for 10 min.\nas §1, with “Non-specific uptake is determined using citalopram (1 μM, final concentration). After” for “After”"}}, "data": [{"smiles": "CN1[C@H]2CC[C@@H]1[C@H](CSc1ccccc1)[C@@H](c1ccc(Cl)c(Cl)c1)C2", "note": "[(1R,2R,3S)-2-phenylthiomethyl-3-(3,4-dichlorophenyl)-tropane]", "values": [{"measurement": "IC50", "setting": "dopamine transporter", "result": 4.3, "unit": "nM"}, {"measurement": "IC50", "setting": "serotonin transporter", "result": 9.2, "unit": "nM"}]}]}
